Laboratory results published in patent publication US20080176885A1, “Novel synergistic opioid-cannabinoid codrug for pain management” (University of Kentucky, priority 2006, published 2008).
“And” between values parts separate entries of the source, which are not always exact repeats. Equal values may be shown once.

Tested on: thermally-induced nociception in rats
Assay: Tail-flick test (thermally-induced nociception) in rats
Type: in vivo, rat (male Sprague-Dawley)
Settings: i.p., rat, cut off 10 seconds
Procedure: The purpose of the study was to determine the analgesic effect of tetrahydrocannabinol (Δ-9 THC) alone, Morphine Alone and Δ-9 THC in combination with Morphine on thermal-induced pain was determined. […] The dose response curve for the tail flick test and the analgesic effects of various doses of Morphine alone, Δ-9 THC alone as well as various doses of Δ-9 THC combined with various doses of morphine was determined by comparing pre-injection baseline values to post-injection values.
The tail-flick test was performed according to the following procedure:
Male Sprague-Dawley rats all with an approximate age of 85 to 90 days were each weighed prior to being subjected to any tests, on the day of the experiment. Each rat was only used for one day of experiments, and given only one dose, or dose combination. • 1. Prior to tail-flick test, rats are habituated for three days to handling and the tail flick procedure, without heat exposure. • 2. On the day of the experiment, warm up the tail-flick apparatus (IITC Model 33, Life Science, Woodland Hills, Calif.) for at least 30 minutes. • 3. Adjust the intensity of the lamp so that baseline tail-flick latency for rats is equal to approximately 2.0 seconds. […] Place rat in a mitten and blacken tail with ink approximately 2 inches in length at 1 inch from the tip of the tail. • 6. Place the tail flatly in the groove of the tail-flick apparatus. • 7. Push start to begin heat exposure. The lamp will turn off automatically when the tail flicks from the heat source. • 8. For each rat, a baseline score is determined prior to injection. TFL (tail flick latency) is measured twice in an approximate 15 minute intervals and an average of the two times determines the baseline. • 9. Once the baseline value is determined, TFL is measured, following the injection of drugs, at times 15, 30, 60 and 120 minutes.
All solutions were made on the day of the experiment. Not all of the solutions described below were used in every experiment. The drug combinations vary for each experiment. Each particular combination for an experiment is reported in the corresponding table below.
Each animal is given an injection of morphine that is 1 ml/kg body weight, and an injection of THC or control that is varies by dose and the injection volume is calculated as set forth above.

[1] = Example 10, dose Z: 2 mg/kg morphine 30 minutes after vehicle

Question: CCCCCc1cc(O)c2c(c1)OC(C)(C)[C@@H]1CCC(C)=C[C@@H]21 [Δ-9 THC, delta-9-tetrahydrocannabinol] was tested. Which “Tail Flick Latency (TFL, seconds) 15 min” value (Example 6, dose X: saline and 2 mg/kg Δ-9 THC, 15 min) did it give?
Answer: 2.33 s and 1.77 s and 2.10 s

Question: What about the “Tail Flick Latency (TFL, seconds) 15 min” value (Example 8, dose X: saline and 2 mg/kg Δ-9 THC, 15 min) of the same molecule?
Answer: 2.57 s and 1.88 s and 3.65 s

Question: What about the “Tail Flick Latency (TFL, seconds) 180 min” value (dose C: saline and 8 mg/kg Δ-9 THC) of the same molecule?
Answer: 10.0 s

Question: And the “Tail Flick Latency (TFL, seconds) 240 min” value (dose C: saline and 8 mg/kg Δ-9 THC, 240 min)?
Answer: 9.21 s and 8.98 s and 7.28 s

Question: What about the “Tail Flick Latency (TFL, seconds) 15 min” value (dose E: saline and 1 mg/kg Δ-9 THC, 15 min) of the same molecule?
Answer: 2.12 s and 2.03 s

Question: What about the “Tail Flick Latency (TFL, seconds) 30 min” value (dose E: saline and 1 mg/kg Δ-9 THC) of the same molecule?
Answer: 2.56 s and 2.15 s

Question: What about the “Tail Flick Latency (TFL, seconds) 60 min” value (dose E: saline and 1 mg/kg Δ-9 THC, 60 min) of the same molecule?
Answer: 3.98 s and 5.07 s

Question: And the “Tail Flick Latency (TFL, seconds) 120 min” value (dose E: saline and 1 mg/kg Δ-9 THC, 120 min)?
Answer: 4.20 s and 3.09 s

Question: And the “Tail Flick Latency (TFL, seconds) 30 min” value (dose G: saline and 4 mg/kg Δ-9 THC)?
Answer: 5.07 s and 5.89 s and 5.10 s

Question: What about the “Tail Flick Latency (TFL, seconds) 60 min” value (dose G: saline and 4 mg/kg Δ-9 THC, 60 min) of the same molecule?
Answer: 6.24 s and 8.76 s and 6.48 s

Question: CN1CC[C@]23c4c5ccc(O)c4O[C@H]2[C@@H](O)C=C[C@H]3[C@H]1C5 [Morphine] was tested. Which “Tail Flick Latency (TFL, seconds) 15 min” value (Example 7, dose Z: vehicle and 2 mg/kg morphine, 15 min) did it give?
Answer: 3.08 s and 3.12 s and 2.28 s

Question: And the “Tail Flick Latency (TFL, seconds) 30 min” value (Example 7, dose Z: vehicle and 2 mg/kg morphine)?
Answer: 2.96 s and 2.83 s and 4.73 s

Question: And the “Tail Flick Latency (TFL, seconds) 60 min” value (Example 7, dose Z: vehicle and 2 mg/kg morphine, 60 min)?
Answer: 2.22 s and 3.69 s and 3.85 s

Question: What about the “Tail Flick Latency (TFL, seconds) 30 min” value (Example 9, dose Z: 2 mg/kg Morphine and vehicle) of the same molecule?
Answer: 4.22 s and 4.99 s and 3.00 s

Question: What about the “Tail Flick Latency (TFL, seconds) 60 min” value (Example 9, dose Z: 2 mg/kg Morphine and vehicle, 60 min) of the same molecule?
Answer: 2.91 s and 5.25 s and 3.97 s

Question: And the “Tail Flick Latency (TFL, seconds) 120 min” value (Example 9, dose Z: 2 mg/kg Morphine and vehicle, 120 min)?
Answer: 2.68 s and 4.83 s and 2.67 s

Question: What about the “Tail Flick Latency (TFL, seconds) 15 min” value (Example 10, dose Z: 2 mg/kg morphine 30 minutes after vehicle, 15 min) of the same molecule?
Answer: 2.41 s and 2.99 s and 3.89 s and 2.36 s and 2.97 s and 3.02 s

Question: What about the “Tail Flick Latency (TFL, seconds) 30 min” value [1] of the same molecule?
Answer: 2.90 s and 3.58 s and 4.86 s and 4.07 s and 4.39 s and 3.90 s

Question: And the “Tail Flick Latency (TFL, seconds) 60 min” value (Example 10, dose Z: 2 mg/kg morphine 30 minutes after vehicle, 60 min)?
Answer: 3.26 s and 3.14 s and 3.96 s and 3.86 s and 3.99 s and 4.01 s

Question: And the “Tail Flick Latency (TFL, seconds) 120 min” value (Example 10, dose Z: 2 mg/kg morphine 30 minutes after vehicle, 120 min)?
Answer: 2.68 s and 2.94 s and 3.18 s and 3.06 s and 3.23 s

Question: And the “Tail Flick Latency (TFL, seconds) 180 min” value [1]?
Answer: 2.15 s and 2.64 s and 2.59 s and 2.18 s and 2.56 s and 2.67 s

Question: What about the “Tail Flick Latency (TFL, seconds) 15 min” value (dose B: 3 mg/kg morphine and vehicle, 15 min post-injection) of the same molecule?
Answer: 2.38 s and 2.19 s and 2.74 s

Question: And the “Tail Flick Latency (TFL, seconds) 60 min” value (dose B: 3 mg/kg morphine and vehicle, 60 min post-injection)?
Answer: 5.36 s and 4.63 s and 4.80 s

Question: What about the “Tail Flick Latency (TFL, seconds) 120 min” value (dose B: 3 mg/kg morphine and vehicle, 120 min post-injection) of the same molecule?
Answer: 4.02 s and 4.55 s and 3.99 s
